Key:
D(1A) dopamine receptor = D(1A) dopamine receptor (Bos taurus, UniProt Q95136); experiment: Displacement of [3H]SCH-23390 from bovine striatal membrane Dopamine receptor D1
D(2) dopamine receptor [1] = target: T1, D(2) dopamine receptor (Homo sapiens, UniProt P14416); experiment: Displacement of [3H]spiperone from human Dopamine receptor D2S expressed in CHO cells; assay type: cell-based
D(2) dopamine receptor [2] = target: T1, D(2) dopamine receptor; experiment: Displacement of [3H]spiperone from human Dopamine receptor D2L expressed in CHO cells; assay type: cell-based
D(4) dopamine receptor = target: T2, D(4) dopamine receptor (Homo sapiens, UniProt P21917); experiment: Displacement of [3H]spiperone from human Dopamine receptor D4.4 expressed in CHO cells; assay type: cell-based
T2 sequence (P21917 whole entry): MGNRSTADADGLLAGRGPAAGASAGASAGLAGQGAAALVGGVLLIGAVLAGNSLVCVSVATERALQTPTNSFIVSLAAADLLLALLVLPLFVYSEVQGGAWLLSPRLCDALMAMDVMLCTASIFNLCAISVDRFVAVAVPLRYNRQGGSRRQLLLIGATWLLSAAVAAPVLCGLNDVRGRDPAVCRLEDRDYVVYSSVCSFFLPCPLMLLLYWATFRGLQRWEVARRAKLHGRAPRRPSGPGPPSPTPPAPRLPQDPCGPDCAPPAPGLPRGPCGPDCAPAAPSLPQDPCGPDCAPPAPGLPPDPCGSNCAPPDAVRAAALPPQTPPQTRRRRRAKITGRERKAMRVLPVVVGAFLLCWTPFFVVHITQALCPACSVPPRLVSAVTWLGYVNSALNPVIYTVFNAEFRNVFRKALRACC

D(3) dopamine receptor = D(3) dopamine receptor (Homo sapiens, UniProt P35462); experiment: Displacement of [3H]spiperone from human Dopamine receptor D3 expressed in CHO cells; assay type: cell-based
Chain of D(3) dopamine receptor (P35462 whole entry): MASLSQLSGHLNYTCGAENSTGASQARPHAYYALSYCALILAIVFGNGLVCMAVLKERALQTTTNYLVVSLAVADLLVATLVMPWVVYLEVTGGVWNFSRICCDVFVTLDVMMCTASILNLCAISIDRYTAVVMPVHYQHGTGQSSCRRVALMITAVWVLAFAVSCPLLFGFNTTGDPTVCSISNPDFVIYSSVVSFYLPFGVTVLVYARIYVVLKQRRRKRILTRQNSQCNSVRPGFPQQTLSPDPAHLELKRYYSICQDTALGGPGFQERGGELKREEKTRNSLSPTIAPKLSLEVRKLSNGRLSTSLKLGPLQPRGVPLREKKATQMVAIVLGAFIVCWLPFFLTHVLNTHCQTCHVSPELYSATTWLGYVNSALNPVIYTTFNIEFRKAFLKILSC

Chain of D(1A) dopamine receptor (Q95136 whole entry): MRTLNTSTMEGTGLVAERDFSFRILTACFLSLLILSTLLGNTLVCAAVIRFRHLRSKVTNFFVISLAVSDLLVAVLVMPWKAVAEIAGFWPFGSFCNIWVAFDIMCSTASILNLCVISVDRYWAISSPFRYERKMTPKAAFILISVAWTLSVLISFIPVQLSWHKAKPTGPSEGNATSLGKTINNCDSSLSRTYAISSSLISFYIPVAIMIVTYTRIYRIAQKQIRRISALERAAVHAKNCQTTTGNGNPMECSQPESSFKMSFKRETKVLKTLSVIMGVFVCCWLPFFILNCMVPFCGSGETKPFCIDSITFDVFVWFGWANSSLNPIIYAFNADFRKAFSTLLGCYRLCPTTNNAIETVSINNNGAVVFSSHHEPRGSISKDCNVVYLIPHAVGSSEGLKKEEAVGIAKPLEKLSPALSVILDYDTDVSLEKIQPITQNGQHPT
T1 sequence (P14416 whole entry): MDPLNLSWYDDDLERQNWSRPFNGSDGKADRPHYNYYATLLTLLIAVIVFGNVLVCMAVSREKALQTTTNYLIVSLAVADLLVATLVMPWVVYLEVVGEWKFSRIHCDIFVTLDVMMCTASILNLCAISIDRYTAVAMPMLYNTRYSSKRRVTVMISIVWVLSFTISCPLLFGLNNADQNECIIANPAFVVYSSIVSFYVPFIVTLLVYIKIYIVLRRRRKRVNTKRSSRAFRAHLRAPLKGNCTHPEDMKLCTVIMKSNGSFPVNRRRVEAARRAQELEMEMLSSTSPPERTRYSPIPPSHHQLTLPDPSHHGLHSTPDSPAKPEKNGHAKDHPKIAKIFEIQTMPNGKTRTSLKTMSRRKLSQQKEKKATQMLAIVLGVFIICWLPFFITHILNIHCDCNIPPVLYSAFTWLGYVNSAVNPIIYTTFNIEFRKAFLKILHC

Compound	Ki (D(1A) dopamine receptor)	Ki (D(2) dopamine receptor [1])	Ki (D(2) dopamine receptor [2])	Ki (D(4) dopamine receptor)	Ki (D(3) dopamine receptor)
C(#Cc1cccn1C1CCN(Cc2ccccc2)CC1)c1ccccc1	16 µM	8.3 µM	10 µM	3.3 µM	8.7 µM
c1ccc(CN2CCC(n3ccc(-c4cnco4)c3)CC2)cc1	39 µM	3.2 µM	3.4 µM	0.13 µM	6.8 µM
N#CC(C#N)=Cc1ccn(C2CCN(Cc3ccccc3)CC2)c1	14 µM	18 µM	13 µM	0.23 µM	7 µM
N#CC(C#N)=Cc1cccn1C1CCN(Cc2ccccc2)CC1	15 µM	7.8 µM	11 µM	0.28 µM	5.1 µM
c1ccc(CN2CCC(n3cccc3)CC2)cc1	34 µM	9.8 µM	8.5 µM	1.1 µM	15 µM
c1ccc(CN2CCC(n3cccc3-c3cnco3)CC2)cc1	10 µM	0.32 µM	0.61 µM	0.063 µM	0.77 µM
O=Cc1ccn(C2CCN(Cc3ccccc3)CC2)c1	61 µM	65 µM	49 µM	0.96 µM	31 µM

Now from value to molecule:

Ki (D(1A) dopamine receptor)	Ki (D(2) dopamine receptor [1])	Ki (D(2) dopamine receptor [2])	Ki (D(4) dopamine receptor)	Ki (D(3) dopamine receptor)	Compound
14 µM	4.9 µM	6.2 µM	2.7 µM	7.7 µM	C[Si](C)(C)C#Cc1cccn1C1CCN(Cc2ccccc2)CC1
14 µM	6.3 µM	6.6 µM	0.94 µM	7.9 µM	C#Cc1cccn1C1CCN(Cc2ccccc2)CC1
5.8 µM	1.5 µM	1.4 µM	0.2 µM	2.5 µM	O=Cc1cccn1C1CCN(Cc2ccccc2)CC1
11 µM	5.3 µM	8.5 µM	1.5 µM	2.6 µM	Ic1cccn1C1CCN(Cc2ccccc2)CC1

Source: ChEMBL document CHEMBL1131871, “Piperidinylpyrroles: design, synthesis and binding properties of novel and selective dopamine D4 receptor ligands” (Bioorg Med Chem Lett, 1999)
